# pEC50, pIC50, pKi: −log10 of the molar value. Like-named read-outs stand apart in the source and are kept apart here.
# Key:
# human AR [1] = molecular target: T1, human AR (Homo sapiens, UniProt P10275); assay: AR whole cell competitive binding assay (3H-DHT), transfected COS-1 cells; parameters: expressed in transfected cells; transient transfection with pRShAR; conditions: COS-1 cells, 1 nM 3H-DHT, Cheng-Prusoff from IC50; for pKi: read-out: AR Binding Ki; for Ki: AR Binding Ki (nM)
# T1 sequence (P10275 1-920): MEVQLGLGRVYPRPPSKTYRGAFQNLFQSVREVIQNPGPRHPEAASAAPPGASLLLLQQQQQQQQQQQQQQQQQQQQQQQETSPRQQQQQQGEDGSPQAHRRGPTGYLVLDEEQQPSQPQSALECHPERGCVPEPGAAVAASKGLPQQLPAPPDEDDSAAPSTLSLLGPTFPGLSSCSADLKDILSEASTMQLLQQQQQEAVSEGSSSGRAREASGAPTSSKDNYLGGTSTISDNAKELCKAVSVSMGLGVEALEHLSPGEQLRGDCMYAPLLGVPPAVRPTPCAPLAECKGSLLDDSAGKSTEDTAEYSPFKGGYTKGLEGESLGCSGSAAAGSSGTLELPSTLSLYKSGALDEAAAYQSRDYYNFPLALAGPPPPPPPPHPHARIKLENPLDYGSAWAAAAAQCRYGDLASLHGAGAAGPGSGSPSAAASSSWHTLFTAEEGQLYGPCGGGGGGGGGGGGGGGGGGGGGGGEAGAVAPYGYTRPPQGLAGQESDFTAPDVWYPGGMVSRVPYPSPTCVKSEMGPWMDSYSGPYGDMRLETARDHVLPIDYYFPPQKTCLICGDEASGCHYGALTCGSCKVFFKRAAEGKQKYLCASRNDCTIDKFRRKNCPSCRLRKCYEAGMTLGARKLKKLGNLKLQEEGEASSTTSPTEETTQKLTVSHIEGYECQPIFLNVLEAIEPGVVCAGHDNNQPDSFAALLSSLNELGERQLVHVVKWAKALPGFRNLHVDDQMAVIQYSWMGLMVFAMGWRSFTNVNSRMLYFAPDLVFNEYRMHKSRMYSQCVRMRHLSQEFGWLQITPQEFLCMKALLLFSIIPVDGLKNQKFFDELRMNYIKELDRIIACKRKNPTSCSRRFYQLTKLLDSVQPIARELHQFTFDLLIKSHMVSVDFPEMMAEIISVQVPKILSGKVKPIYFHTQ
# Protocol: AR Binding: For the whole cell binding assay, COS-1 cells in 96-well microtiter plates containing DMEM-10% FBS were transfected as described above with the following plasmid DNA: pRShAR (2 ng/well), pRS-β-Gal (50 ng/well) and pGEM (48 ng/well). Six hours after transfection, media was removed, the cells were washed with PBS and fresh media was added. The next day, the media was changed to DMEM-serum free to remove any endogenous ligand that might be complexed with the receptor in the cells.
# Three replicates were used for each sample. […] The remaining media was removed, the cells were washed three times with PBS to remove unbound ligand and cells were lysed with a Triton X-100-based buffer.
# For the saturation analyses, the difference between the total binding and the nonspecific binding, normalized by the β-Gal rate, was defined as specific binding. […] The Ki values were determined by application of the Cheng-Prusoff equation to the IC50 values, where: […]
# After correcting for non-specific binding, IC50 values were determined. […] The IC50 value was determined graphically from a log-logit plot of the data. The Ki values were determined by application of the Cheng-Prusoff equation to the IC50 values, the labeled ligand concentration and the Kd of the labeled ligand.
# human AR [2] = molecular target: T1, human AR; assay: Co-transfection assay, AR antagonist activity in presence of DHT, CV-1 cells; format: cell-based; parameters: expressed in transfected cells; host or cells: CV-1 cells (African green monkey kidney fibroblasts), transient transfection with pRShAR; conditions: CV-1 cells; for pIC50 / IC50: antagonist potency or IC50, DHT at its EC50 concentration; for pIC50: read-out: AR Antagonist CV-1 Cells Potency; for AR Antagonist CV-1 Cells Efficacy (%): percent maximal inhibition, DHT at its EC50 concentration; for IC50: AR Antagonist CV-1 Cells Potency (nM)
# Description: (§1) The co-transfection assay provides a method for identifying functional agonists and partial agonists which mimic, or antagonists which inhibit, the effect of native hormones and quantifying their activity for responsive IR proteins. In this regard, the co-transfection assay mimics an in vivo system in the laboratory. Importantly, activity in the co-transfection assay correlates very well with known in vivo activity, such that the co-transfection assay functions as a qualitative and quantitative predictor of a tested compounds in vivo pharmacology. See, e.g., T. Berger et al. 41 J. Steroid Biochem. Molec.
# (§2) In the co-transfection assay, a cloned cDNA for an IR (e.g., human PR, AR or GR) under the control of a constitutive promoter (e.g., the SV 40 promoter) is introduced by transfection (a procedure to induce cells to take up foreign genes) into a background cell substantially devoid of endogenous IRs. This introduced gene directs the recipient cells to make the IR protein of interest. A second gene is also introduced (co-transfected) into the same cells in conjunction with the IR gene. This second gene, comprising the cDNA for a reporter protein, such as firefly luciferase (LUC), controlled by an appropriate hormone responsive promoter containing a hormone response element (HRE). This reporter plasmid functions as a reporter for the transcription-modulating activity of the target IR. Thus, the reporter acts as a surrogate for the products (mRNA then protein) normally expressed by a gene under control of the target receptor and its native hormone.
# (§3) The co-transfection assay can detect small molecule agonists or antagonists of target IRs. Exposing the transfected cells to an agonist ligand compound increases reporter activity in the transfected cells. This activity can be conveniently measured, e.g., by increasing luciferase production, which reflects compound-dependent, IR-mediated increases in reporter transcription. […] To detect antagonists, the co-transfection assay is carried out in the presence of a constant concentration of an agonist to the target IR (e.g., progesterone for PR) known to induce a defined reporter signal. Increasing concentrations of a suspected antagonist will decrease the reporter signal (e.g., luciferase production). The co-transfection assay is therefore useful to detect both agonists and antagonists of specific IRs. Furthermore, it determines not only whether a compound interacts with a particular IR, but whether this interaction mimics (agonizes) or blocks (antagonizes) the effects of the native regulatory molecules on target gene expression, as well as the specificity and strength of this interaction.
# (§4) CV-1 cells (African green monkey kidney fibroblasts) were cultured in the presence of Dulbecco's Modified Eagle Medium (DMEM) supplemented with 10% charcoal resin-stripped fetal bovine serum then transferred to 96-well microtiter plates one day prior to transfection.
# (§5) The reporter plasmid, MTV-LUC, contains the cDNA for firefly luciferase (LUC) under control of the mouse mammary tumor virus (MTV) long terminal repeat, a conditional promoter containing an androgen response element. See e.g., Berger et al. supra. In addition, pRS-β-Gal, coding for constitutive expression of E. coli β-galactosidase (β-Gal), was included as an internal control for evaluation of transfection efficiency and compound toxicity.
# (§6) Six hours after transfection, media was removed and the cells were washed with phosphate-buffered saline (PBS). […] Three to four replicates were used for each sample. Transfections and subsequent procedures were performed on a Biomek 1000 automated laboratory work station.
# (§7) After 40 hours, the cells were washed with PBS, lysed with a Triton X-100-based buffer and assayed for LUC and β-Gal activities using a luminometer or spectrophotometer, respectively. For each replicate, the normalized response (NR) was calculated as: LUC response/β-Gal rate • where β-Gal rate=β-Gal·1×10^−5/β-Gal incubation time.
# human AR [3] = molecular target: T1, human AR; assay: Co-transfection assay, AR agonist activity, CV-1 cells; format: cell-based; parameters: expressed in transfected cells; host or cells: CV-1 cells (African green monkey kidney fibroblasts), transient transfection with pRShAR; conditions: for pEC50: agonist potency or EC50, read-out: AR Agonist CV-1 Cells Potency; for AR Agonist CV-1 Cells Efficacy (%): percent maximal response relative to reference agonist DHT; for EC50: AR Agonist CV-1 Cells Potency (nM), agonist potency or EC50
# Description: as §1, §2, §3, §4, §5, §6, §7
Compound,pKi (human AR [1]),pIC50 (human AR [2]),AR Antagonist CV-1 Cells Efficacy (%) (human AR [2]),pEC50 (human AR [3]),AR Agonist CV-1 Cells Efficacy (%) (human AR [3]),Ki (human AR [1]) [nM],IC50 (human AR [2]) [nM],EC50 (human AR [3]) [nM]
"(+)-6,7-Dihydro-6-ethyl-4-trifluoromethyl-8H-pyrano[3,2-g]quinolin-2(1H)-one [Compound 218]",8.39,< 5.00,"na (na = not active (i.e. efficacy of <20 and potency of >10,000))",8.00,82%,–,–,–
"CC1CCc2cc3[nH]c(=O)cc(C(F)(F)F)c3cc2N1CC1CC1 (centres unmarked) [Compound 195, 4-Trifluoromethyl-7-methyl-6-cyclopropylmethyl-6,7,8,9-tetrahydropyrido[2,3-g]quinolin-2(1H)-one]",–,–,"na (na = not active (i.e. efficacy of <20 and potency of >10,000))",–,78%,20,> 10000,–
"O=c1cc(C(F)(F)F)c2cc3c(cc2[nH]1)CCCN3CC1CC1 [Compound 201, 4-Trifluoromethyl-6-cyclopropylmethyl-6,7,8,9-tetrahydropyrido[2,3-g]quinolin-2(1H)-one]",–,–,"na (na = not active (i.e. efficacy of <20 and potency of >10,000))",–,76%,10,> 10000,–
"5-Allyl-6-methyl-4-trifluoromethyl-7H-pyrrolo[3,2-f]quinolin-2(1H)-one [Compound 114]",7.09,8.18,81%,< 5.00,"na (na = not active (i.e. efficacy of <20 and potency of >10,000))",–,–,–
"O=c1cc(C(F)(F)F)c2cc3c(cc2[nH]1)C1CCCC1N3CC(F)(F)F (racemic) [Compound 120, (±)-6,6a,7,8,9,9a(cis)-Hexahydro-6-(2,2,2-trifluoroethyl)-4-trifluoromethylcyclopentano-[i]pyrrolo[2,3-g]quinolin-2(1H)-one]",–,–,"na (na = not active (i.e. efficacy of <20 and potency of >10,000))",–,117%,12,> 10000,4.5
"CCCN1CCCc2cc3[nH]c(=O)cc(C(F)(F)F)c3cc21 [Compound 199, 4-Trifluoromethyl-6-propyl-6,7,8,9-tetrahydropyrido[2,3-g]quinolin-2(1H)-one]",–,–,"na (na = not active (i.e. efficacy of <20 and potency of >10,000))",–,70%,236,> 10000,42
"5-(4-Fluorophenyl)-6-methyl-7-(2,2,2-trifluoroethyl)-4-trifluoromethyl-7H-pyrrolo[3,2-f]quinolin-2(1H)-one [Compound 161]",7.52,8.00,66%,6.62,27%,–,–,–
"O=c1cc(C(F)(F)F)c2c3c(ccc2[nH]1)N(Cc1ccsc1)C1CCCC31 (racemic) [Compound 127, (±)-4c,5,6,7,7a(cis),8-Hexahydro-8-(3-thiophenemethyl)-4-trifluoromethyl-cyclopentano[g]pyrrolo[3,2-f]quinolin-2(1H)-one]",–,–,"na (na = not active (i.e. efficacy of <20 and potency of >10,000))",–,66%,6.3,> 10000,25
"5-Isopropyl-6-methyl-4-trifluoromethyl-7H-pyrrolo[3,2-f]quinolin-2(1H)-one [Compound 113]",6.28,6.50,65%,< 5.00,"na (na = not active (i.e. efficacy of <20 and potency of >10,000))",–,–,–
"CCC1C(C)c2c(ccc3[nH]c(=O)cc(C(F)(F)F)c23)N1CC(F)(F)F (racemic) [Compound 134, (±)-5,6-cis-Dihydro-6-ethyl-5-methyl-7-(2,2,2-trifluoroethyl)-4-trifluoromethyl-7H-pyrrolo[3,2-f]quinolin-2(1H)-one]",–,–,"na (na = not active (i.e. efficacy of <20 and potency of >10,000))",–,70%,6.8,> 10000,4.2
"O=c1cc(C(F)(F)F)c2c3c(ccc2[nH]1)N(CC(F)(F)F)C1CCCC31 (single isomer, unassigned; (-)) [Compound 179, (−)-4c,5,6,7,7a(cis),8-Hexahydro-8-(2,2,2-trifluoroethyl)-4-trifluoromethylcyclopentano-[g]pyrrolo[3,2-f]quinolin-2(1H)-one]",–,–,"na (na = not active (i.e. efficacy of <20 and potency of >10,000))",–,91%,4.1,> 10000,1.3
